In general, IC50 refers to the concentration at which inhibition is half-maximal.

We go through 25 molecules from US9604975B2, “Indolyl-pyridone derivatives having checkpoint kinase 1 inhibitory activity” (Vernalis (R&D) Ltd., priority 2009, dated 2017).

The target of the assay is T1, CHK1 (Homo sapiens, UniProt O14757).
T1 construct: His; purchased Invitrogen
T1 sequence (O14757 1-476): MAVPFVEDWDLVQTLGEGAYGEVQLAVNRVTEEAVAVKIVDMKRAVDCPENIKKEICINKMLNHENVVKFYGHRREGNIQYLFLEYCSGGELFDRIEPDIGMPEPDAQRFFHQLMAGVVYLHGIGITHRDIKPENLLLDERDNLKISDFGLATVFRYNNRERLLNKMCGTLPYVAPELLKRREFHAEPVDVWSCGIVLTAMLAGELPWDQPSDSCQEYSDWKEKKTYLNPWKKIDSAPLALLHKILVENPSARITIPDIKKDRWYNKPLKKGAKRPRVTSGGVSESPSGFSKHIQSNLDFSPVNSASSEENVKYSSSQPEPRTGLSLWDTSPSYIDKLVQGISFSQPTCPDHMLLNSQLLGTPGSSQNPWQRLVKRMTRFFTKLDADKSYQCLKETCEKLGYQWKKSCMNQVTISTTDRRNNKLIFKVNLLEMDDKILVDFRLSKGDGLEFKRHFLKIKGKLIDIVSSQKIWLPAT
Kind of assay: CHK1 Enzyme Assay (phosphorylation of Chktide peptide, 33P-ATP filter assay). Format: biochemical. Conditions: 12.5 nM His-CHK1, 0.01 mM ATP, 40 minutes at 30° C.; read-out: CHK1 Enzyme Activity (IC50 range). The protocol: Assays for the CHK1 kinase activity were carried out by monitoring the phosphorylation of a synthetic peptide Chktide with the amino acid sequence, […]. The assay mixture containing the inhibitor and CHK1 enzyme was mixed together in a microtiter plate in a final volume of 50 μl and incubated for 40 minutes at 30° C.
The assay mixture contained 0.01 mM unlabeled ATP, 0.5 μCi ^33P-γ-ATP, 14.8 μM Chktide, 0.1 mg/mL BSA, 50 mM Hepes-NaOH pH 7.5 and 12.5 nM His-CHK1 (Invitrogen) enzyme. The reaction was stopped by adding 50 μL of 50 mM phosphoric acid. 90 μL of the mixture was transferred to a pre-wetted 96-well multi-screen MAPHNOB filtration plate (Millipore) and filtered on a vacuum manifold. The filter plate was washed with 3 successive additions of 200 μl 50 mM phosphoric acid and then with 100 μL methanol. The filtration plate was dried for 10 min at 65° C., scintillant added and phosphorylated peptide quantified in a scintillation counter (Trilux, PerkinElmer).

Where only a bound is given, the exact number is not on record here.

With `O=C(Nc1c[nH]c(=O)c(-c2cc3ccccc3[nH]2)c1)c1cnn(Cc2ccc(C(F)(F)F)cc2)c1` [Example 25, 1-(4-Trifluoromethyl-benzyl)-1H-pyrazole-4-carboxylic acid [5-(1H-indol-2-yl)-6-oxo-1,6-dihydro-pyridin-3-yl]-amide], the IC50 lay within 0.1 to 0.5 µM.
For `Cc1cccc(Cn2cc(C(=O)Nc3c[nH]c(=O)c(-c4cc5ccccc5[nH]4)c3)cn2)c1` [Example 26, 1-(3-Methyl-benzyl)-1H-pyrazole-4-carboxylic acid [5-(1H-indol-2-yl)-6-oxo-1,6-dihydro-pyridin-3-yl]-amide] the value was less than 0.1 µM; for `O=C(Nc1c[nH]c(=O)c(-c2cc3ccccc3[nH]2)c1)c1cnn(Cc2cccc(Cl)c2)c1` [Example 27, 1-(3-Chloro-benzyl)-1H-pyrazole-4-carboxylic acid [5-(1H-indol-2-yl)-6-oxo-1,6-dihydro-pyridin-3-yl]-amide], less than 0.1 µM.
Then `O=C(Nc1c[nH]c(=O)c(-c2cc3ccccc3[nH]2)c1)c1cnn(Cc2ccc(Cl)cc2)c1` [Example 28, 1-(4-Chloro-benzyl)-1H-pyrazole-4-carboxylic acid [5-(1H-indol-2-yl)-6-oxo-1,6-dihydro-pyridin-3-yl]-amide], with less than 0.1 µM; and `Cc1ccc(Cn2cc(C(=O)Nc3c[nH]c(=O)c(-c4cc5ccccc5[nH]4)c3)cn2)cc1` [Example 29, 1-(4-Methyl-benzyl)-1H-pyrazole-4-carboxylic acid [5-(1H-indol-2-yl)-6-oxo-1,6-dihydro-pyridin-3-yl]-amide], with less than 0.1 µM.
For `Cc1[nH]c(=O)c(-c2cc3ccccc3[nH]2)cc1NC(=O)c1cnn(Cc2cccc(F)c2)c1` [Example 30, 1-(3-Fluoro-benzyl)-1H-pyrazole-4-carboxylic acid [5-(1H-indol-2-yl)-2-methyl-6-oxo-1,6-dihydro-pyridin-3-yl]-amide], the IC50 was in the range of 0.1 to 0.5 µM.
For the molecule `Cc1[nH]c(=O)c(-c2cc3ccccc3[nH]2)cc1NC(=O)c1cnn(Cc2ccccc2)c1` [Example 31, 1-Benzyl-1H-pyrazole-4-carboxylic acid [5-(1H-indol-2-yl)-2-methyl-6-oxo-1,6-dihydro-pyridin-3-yl]-amide], the IC50 is less than 0.1 µM.
For `Cc1[nH]c(=O)c(-c2cc3ccccc3[nH]2)cc1NC(=O)c1cnn(Cc2ccc(F)cc2)c1` [Example 32, 1-(4-Fluoro-benzyl)-1H-pyrazole-4-carboxylic acid [5-(1H-indol-2-yl)-2-methyl-6-oxo-1,6-dihydro-pyridin-3-yl]-amide] the value was 0.1 to 0.5 µM.
Then `Cc1[nH]c(=O)c(-c2cc3ccccc3[nH]2)cc1NC(=O)c1cnn(Cc2ccc(F)c(F)c2)c1` [Example 33, 1-(3,4-Difluoro-benzyl)-1H-pyrazole-4-carboxylic acid [5-(1H-indol-2-yl)-2-methyl-6-oxo-1,6-dihydro-pyridin-3-yl]-amide], with 0.1 to 0.5 µM; and `O=C(Nc1cnn(CC2CCCCC2)c1)c1c[nH]c(=O)c(-c2cc3ccccc3[nH]2)c1` [Example 34, 5-(1H-Indol-2-yl)-6-oxo-1,6-dihydro-pyridine-3-carboxylic acid (1-cyclohexylmethyl-1H-pyrazol-4-yl)-amide], with 0.5 to 1.5 µM; and `O=C(Nc1cnn(Cc2cccnc2)c1)c1c[nH]c(=O)c(-c2cc3ccccc3[nH]2)c1` [Example 35, 5-(1H-Indol-2-yl)-6-oxo-1,6-dihydro-pyridine-3-carboxylic acid (1-pyridin-3-ylmethyl-1H-pyrazol-4-yl)-amide], with less than 0.1 µM.
As to `O=C(Nc1cnn(Cc2ccncc2)c1)c1c[nH]c(=O)c(-c2cc3ccccc3[nH]2)c1` [Example 36, 5-(1H-Indol-2-yl)-6-oxo-1,6-dihydro-pyridine-3-carboxylic acid (1-pyridin-4-ylmethyl-1H-pyrazol-4-yl)-amide], the IC50 lay in the range of 0.1 to 0.5 µM.
`Cc1ccc(Cn2cc(C(=O)Nc3c[nH]c(=O)c(-c4cc5cc(CN6CCC(F)CC6)ccc5[nH]4)c3)cn2)cc1` [Example 37, 1-(4-Methyl-benzyl)-1H-pyrazole-4-carboxylic acid {5-[5-(4-fluoro-piperidin-1-ylmethyl)-1H-indol-2-yl]-6-oxo-1,6-dihydro-pyridin-3-yl}-amide]: the IC50 was less than 0.1 µM.
Then `Cc1ccc(Cn2cc(C(=O)Nc3c[nH]c(=O)c(-c4cc5cc(CN6CCC(CO)CC6)ccc5[nH]4)c3)cn2)cc1` [Example 39, 1-(4-Methyl-benzyl)-1H-pyrazole-4-carboxylic acid {5-[5-(4-hydroxymethyl-piperidin-1-ylmethyl)-1H-indol-2-yl]-6-oxo-1,6-dihydro-pyridin-3-yl}-amide], with less than 0.1 µM; and `Cc1ccc(Cn2cc(C(=O)Nc3c[nH]c(=O)c(-c4cc5cc(CN6CCOCC6)ccc5[nH]4)c3)cn2)cc1` [Example 40, 1-(4-Methyl-benzyl)-1H-pyrazole-4-carboxylic acid [5-(5-morpholin-4-ylmethyl-1H-indol-2-yl)-6-oxo-1,6-dihydro-pyridin-3-yl]-amide], with less than 0.1 µM.
As for `Cc1ccc(Cn2cc(C(=O)Nc3c[nH]c(=O)c(-c4cc5cc(CN6CCCC6)ccc5[nH]4)c3)cn2)cc1` [Example 41, 1-(4-Methyl-benzyl)-1H-pyrazole-4-carboxylic acid [6-oxo-5-(5-pyrrolidin-1-ylmethyl-1H-indol-2-yl)-1,6-dihydro-pyridin-3-yl]-amide], the IC50 is less than 0.1 µM.
For the molecule `Cc1ccc(Cn2cc(C(=O)Nc3c[nH]c(=O)c(-c4cc5cc(CN6CC(O)C6)ccc5[nH]4)c3)cn2)cc1` [Example 42, 1-(4-Methyl-benzyl)-1H-pyrazole-4-carboxylic acid {5-[5-(3-hydroxy-azetidin-1-ylmethyl)-1H-indol-2-yl]-6-oxo-1,6-dihydro-pyridin-3-yl}-amide], the IC50 is less than 0.1 µM.
Then `Cc1ccc(Cn2cc(C(=O)Nc3c[nH]c(=O)c(-c4cc5cc(CN(C)CCO)ccc5[nH]4)c3)cn2)cc1` [Example 43, 1-(4-Methyl-benzyl)-1H-pyrazole-4-carboxylic acid [5-(5-{[(2-hydroxy-ethyl)-methyl-amino]-methyl}-1H-indol-2-yl)-6-oxo-1,6-dihydro-pyridin-3-yl]-amide], with less than 0.1 µM.
For `O=C(Nc1c[nH]c(=O)c(-c2cc3cc(CN4CCCCC4)ccc3[nH]2)c1)c1cnn(Cc2ccc(Cl)cc2)c1` [Example 44, 1-(4-Chloro-benzyl)-1H-pyrazole-4-carboxylic acid [6-oxo-5-(5-piperidin-1-ylmethyl-1H-indol-2-yl)-1,6-dihydro-pyridin-3-yl]-amide] the value was less than 0.1 µM.
Then `CCN(CCO)Cc1ccc2[nH]c(-c3cc(NC(=O)c4cnn(Cc5ccc(Cl)cc5)c4)c[nH]c3=O)cc2c1` [Example 45, 1-(4-Chloro-benzyl)-1H-pyrazole-4-carboxylic acid [5-(5-{[ethyl-(2-hydroxy-ethyl)-amino]-methyl}-1H-indol-2-yl)-6-oxo-1,6-dihydro-pyridin-3-yl]-amide], with less than 0.1 µM.
On to `O=C(Nc1c[nH]c(=O)c(-c2cc3cc(CNCCO)ccc3[nH]2)c1)c1cnn(Cc2ccc(Cl)cc2)c1` [Example 46, 1-(4-Chloro-benzyl)-1H-pyrazole-4-carboxylic acid (5-{5-[(2-hydroxy-ethylamino)-methyl]-1H-indol-2-yl}-6-oxo-1,6-dihydro-pyridin-3-yl)-amide], for which the IC50 is less than 0.1 µM.
`O=C(Nc1c[nH]c(=O)c(-c2cc3cc(CN4CCC(F)CC4)ccc3[nH]2)c1)c1cnn(Cc2ccc(Cl)cc2)c1` [Example 47, 1-(4-Chloro-benzyl)-1H-pyrazole-4-carboxylic acid {5-[5-(4-fluoro-piperidin-1-ylmethyl)-1H-indol-2-yl]-6-oxo-1,6-dihydro-pyridin-3-yl}-amide]: the IC50 was less than 0.1 µM.
As for `O=C(Nc1c[nH]c(=O)c(-c2cc3cc(CN4CCC(O)CC4)ccc3[nH]2)c1)c1cnn(Cc2ccc(Cl)cc2)c1` [Example 48, 1-(4-Chloro-benzyl)-1H-pyrazole-4-carboxylic acid {5-[5-(4-hydroxy-piperidin-1-ylmethyl)-1H-indol-2-yl]-6-oxo-1,6-dihydro-pyridin-3-yl}-amide], the IC50 was less than 0.1 µM.
On to `O=C(Nc1c[nH]c(=O)c(-c2cc3cc(CN4CCCC4)ccc3[nH]2)c1)c1cnn(Cc2ccccc2)c1` [Example 50, 1-Benzyl-1H-pyrazole-4-carboxylic acid [6-oxo-5-(5-pyrrolidin-1-ylmethyl-1H-indol-2-yl)-1,6-dihydro-pyridin-3-yl]-amide], for which the IC50 is less than 0.1 µM.
As to `O=C(Nc1c[nH]c(=O)c(-c2cc3cc(CN4CCOCC4)ccc3[nH]2)c1)c1cnn(Cc2ccccc2)c1` [Example 51, 1-Benzyl-1H-pyrazole-4-carboxylic acid [5-(5-morpholin-4-ylmethyl-1H-indol-2-yl)-6-oxo-1,6-dihydro-pyridin-3-yl]-amide], the IC50 was less than 0.1 µM.
